We go through 4 compounds from US8703764B2, “Combination therapy for dementia, depression and apathy” (priority 2003, dated 2014).

Series [1] relates to apathy in a patient with Parkinson's disease. Description: Case report Example 5: severe apathy in a patient with Parkinson's disease. It counts as in vivo, human. To be noted: before admission to hospital. An excerpt: A person retired sailor developed Parkinson's disease more than 5 years before admission to hospital. After the onset of Parkinson's disease they developed decreased motivation and decreased interest. The severity of the apathy progressed to a near total lack of initiative. A trial of methylphenidate for apathy was unsuccessful. They were admitted to hospital with anxiety, severe apathy and constipation. They were unable to function at home leading to caregiver burn out.
Core symptoms of delirium were absent. A shuffling gait devoid of heel strike or toe push was observed. Arm swing was decreased. This person described decreased motivation in face of clear enjoyment of family visits and the sunshine outside. Their capacity for projective pleasure was preserved. They were satisfied with their accomplishments over their life. They felt their quality of life was reduced by their lack initiative. Objective mood and affect were flat. Thought form was marked by latency but progressed logically to a goal oriented conclusion. Thought content was free of delusions or hallucinations. Language was mildly impaired with paraphasic errors noted. Remote memories were difficult to recall and approximately correct. Their sense of humor and capacity for abstraction were preserved.
This was judged consistent with Parkinson's disease by the registered psychologist.
They could walk four lengths of the hallway. […]

Series [2] has as its system patient with depressed mood, lack of pleasure and absent initiative. Description: Case report Example 6: depressed mood, lack of pleasure and absent initiative in a retired nurse. It counts as in vivo, human. The protocol:
A 75 year retired nurse lived independently in the community until 2 months prior to admission.
Moclobemide was commenced at 200 mg. daily on day 4, increased to 300 mg. daily and day 6 and continued at 300 mg. daily.
Risperidone was commenced at 0.5 mg daily on day 7, discontinued on day 14 then restarted at 0.5 mg daily alternating with 0.25 mg. daily and continued as such.

The subject of series [3] is patient with early onset Alzheimer's disease. Nature of the series: Case report Example 4: patient with early onset Alzheimer's disease, anxiety and depressed mood. As to conditions: for adverse effect leading to discontinuation: human, in vivo.

Consider `COC(=O)C(c1ccccc1)C1CCCCN1` (stereo not drawn) [methylphenidate], for which the trial for apathy result in series [1] is reported as “unsuccessful”. Turning to `O=C(NCCN1CCOCC1)c1ccc(Cl)cc1` [moclobemide, p-chloro-N-(2-morpholinoethyl) benzamide], in series [2] (by Day 6, moclobemide 200 mg daily from day 4, 300 mg daily from day 6, before risperidone), the “late afternoon quality of mood and mobility of affect” value is “improved”.

As to `Cc1nc2n(c(=O)c1CCN1CCC(c3noc4cc(F)ccc34)CC1)CCCC2` [risperidone, 3-[2-[4-(6-fluoro-1,2-benzisoxazol-3-yl)piperidino]ethyl]-2-methyl-6,7,8,9-tetrahydro-4H-pyrido-[1,2-a]pyrimidin-4-one], the “adverse effect leading to discontinuation” value in series [3] was “emergence of dystonia”. The extrapyramidal side effects entry in series [2] (shortly after Day 13, risperidone 0.5 mg daily) is “mild extrapyramidal symptoms emerged”. Consider `COc1ccc(C(CN(C)C)C2(O)CCCCC2)cc1` (stereo not drawn) [venlafaxine], for which the “adverse effect leading to discontinuation” value in series [3] is on record as “excessive sweating”. Moreover, the depressed mood entry in series [3] (venlafaxine 150 mg daily, donepezil 10 mg daily commenced) was “responded”.
